pIC50: −log10 of the molar value.
How the values were obtained:
β-glucosidase GBA2 = molecular target: T1, β-glucosidase GBA2 (Homo sapiens, UniProt Q9HCG7); test: in vitro apparent IC50, GBA2-overexpressing HEK293T lysate; format: biochemical; details: apparent IC50, pH 5.8, mean ± SD
T1 construct: expressed in transfected cells; host or cells: HEK293T
T1 sequence (Q9HCG7 1-927): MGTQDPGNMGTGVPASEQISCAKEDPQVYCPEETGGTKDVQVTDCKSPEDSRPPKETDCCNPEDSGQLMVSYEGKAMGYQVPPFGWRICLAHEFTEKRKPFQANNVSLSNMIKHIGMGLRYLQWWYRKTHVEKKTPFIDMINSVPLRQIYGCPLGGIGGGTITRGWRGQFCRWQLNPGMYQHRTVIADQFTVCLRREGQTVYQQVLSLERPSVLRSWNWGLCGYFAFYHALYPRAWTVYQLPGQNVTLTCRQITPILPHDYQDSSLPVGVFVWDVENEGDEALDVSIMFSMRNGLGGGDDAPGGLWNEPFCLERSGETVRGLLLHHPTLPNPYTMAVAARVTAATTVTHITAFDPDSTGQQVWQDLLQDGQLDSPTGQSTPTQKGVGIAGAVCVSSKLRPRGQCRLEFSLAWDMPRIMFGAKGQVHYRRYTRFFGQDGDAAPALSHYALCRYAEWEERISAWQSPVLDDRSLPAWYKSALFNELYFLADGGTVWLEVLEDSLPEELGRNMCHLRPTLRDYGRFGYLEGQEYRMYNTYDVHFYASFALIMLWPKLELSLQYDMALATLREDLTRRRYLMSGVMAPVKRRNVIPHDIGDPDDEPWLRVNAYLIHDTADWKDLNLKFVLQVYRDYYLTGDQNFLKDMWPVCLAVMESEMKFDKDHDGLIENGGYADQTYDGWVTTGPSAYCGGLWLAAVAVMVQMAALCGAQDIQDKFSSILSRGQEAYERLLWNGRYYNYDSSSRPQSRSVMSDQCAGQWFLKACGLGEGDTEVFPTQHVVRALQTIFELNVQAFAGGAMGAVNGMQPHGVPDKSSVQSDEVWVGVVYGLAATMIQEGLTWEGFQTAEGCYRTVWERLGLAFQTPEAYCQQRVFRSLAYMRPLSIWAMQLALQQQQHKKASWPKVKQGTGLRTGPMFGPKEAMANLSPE

rhGAA (Myozyme) = molecular target: T2, rhGAA (Myozyme) (Homo sapiens, UniProt P10253); test: time-dependent inhibition of GAA; format: biochemical; details: preincubation 15-240 min at apparent IC50 concentration
T2 construct: purchased Sanofi Genzyme
Procedure: 2.1 Biochemical and Biological Methods
2.1.1 In vitro apparent IC50 experiments
To determine in vitro apparent IC50 values, 40 μL of enzyme-mixture was pre-incubated with 40 μL of inhibitor for […]
and 2% DMSO (v/v). GANAB in 150 mM McIlvaine buffer pH 7.0, 0.1% BSA (w/v) and 2% DMSO (v/v). GBA1 in 150 mM McIlvaine buffer pH 5.2, 0.2% Taurocholate (w/v), 0.1% Triton X-100 (v/v), 0.1% BSA (w/v), 2% DMSO (v/v). GBA2 in 150 mM McIlvaine pH 5.8, 0.1% BSA (w/v).
After preincubation, 25 μL of E+I mixture was added to a 96 wells plate and 100 μL substrate solution in the appropriate buffer was subsequently added. GAA activity was measured using final concentrations of 47 nM enzyme (Myozyme) and 3.0 mM 4-MU-α-D-glucopyranoside, for 30 minutes at 37 ℃. GANAB activity was measured using wt fibroblasts and 2.4 mM 4-MU-α-D-glucopyranoside, for 2 h at 37 ℃. GBA1 activity was measured using final concentrations of 0.7 nM enzyme (Cerezyme) and 3.0 mM 4-methylumbeliferone(4-MU)-β-D-glucopyranoside, for 30 min at 37 ℃. GBA2 residual activity was measured using cellular homogenates of HEK293T over-expressing GBA2 pre-incubated for 30 min with a GBA1 inhibitor (1 µM 37 (ME656), see Figure S1 for chemical structure), and further incubation with 3.0 mM 4-methylumbeliferone(4MU)-β-D-glucopyranoside […]

O=S1(=O)N[C@H]2[C@H](CO)[C@@H](O)[C@H](O)[C@@H](O)[C@H]2O1 [compound 6]
pIC50 (β-glucosidase GBA2): < 3.30 | type of inhibition (rhGAA (Myozyme)): irreversible inhibitor

O=S1(=O)N[C@@H]2[C@H](O)[C@@H](O)[C@H](O)[C@@H](CO)[C@@H]2O1 [compound 4, 1,6-epi-cyclophellitol cyclosulfamidate]
pIC50 (β-glucosidase GBA2): < 3.30 | type of inhibition (rhGAA (Myozyme)): competitive manner

Reference: publication PMC9389588, “1,6-epi-Cyclophellitol Cyclosulfamidate Is a Bona Fide Lysosomal α-Glucosidase Stabilizer for the Treatment of Pompe Disease” (Journal of the American Chemical Society, 2022)
